Key:
delF508-CFTR [1] = target: T1, delF508-CFTR (Homo sapiens, UniProt P13569, DEL508-508); assay: Measurement of delF508-CFTR-HRP surface expression in CFBE41o- cells; assay type: cell-based; settings: for EC50: HRP-tagged delF508-CFTR in CFBE41o- cells, 24 h with compound, luminescence, 10-point curve, top 10 μM; for Emax: efficacy relative to reference compound 3-(6-(1-(2,2-difluorobenzo[d][1,3]dioxol-5-yl)cyclopropane-1-carboxamido)-3-methylpyridin-2-yl)benzoic acid, CFBE41o- cells, 24 h, read-out: DelF508-CFTR-HRP Amax %
T1 construct: expressed in transfected cells
In short: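 CFBE41o- cells stably expressing delF508-CFTR with HRP in the fourth extracellular loop, induced with 500 ng/mL doxycycline for 48 h, then treated with compound (top 10 μM, 10-point 3-fold) for 24 h at 37° C. Surface HRP detected by luminescence with cell-impermeant substrate; EC50 from logistic fit of triplicates, normalized to lowest concentration.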

delF508-CFTR [2] = target: T1, delF508-CFTR; assay: delF508-CFTR functional activity in primary human bronchial epithelial cells (HBECs), Multi-Transepithelial Clamp Circuit (MTECC-24) assay; assay type: cell-based; settings: for EC50: primary human delF508-CFTR bronchial epithelial cells, 24 h with compound, equivalent short circuit current (Ieq), forskolin plus potentiator, mean of at least two replicates, read-out: MTECC24-CFHBEC EC50; for MTECC24-CFHBEC Amax %: test compound added 24 h before assay, with potentiator (S)-3-amino-6-methoxy-N-(3,3,3-trifluoro-2-hydroxy-2-methylpropyl)-5-(trifluoromethyl)picolinamide, relative to 2 μM 3-(6-(1-(2,2-difluorobenzo[d][1,3]dioxol-5-yl)cyclopropane-1-carboxamido)-3-methylpyridin-2-yl)benzoic acid + 0.5 μM N-(2,4-di-tert-butyl-5-hydroxyphenyl)-4-oxo-1,4-dihydroquinoline-3-carboxamide
Text: Measurement of delF508-CFTR Functional Activity in Primary Human Bronchial Epithelial Cells (HBECs) Using Multi-Transepithelial Clamp Circuit (MTECC-24) Assay
This assay measures the functional activity of the CFTR channel (Chloride ion transport) in patient derived primary human bronchial epithelial cells with forskolin activation and in the presence of the CFTR corrector/potentiator combination.
Primary human delF508-CFTR bronchial epithelial cells were and cultured according to previously established methods (Neuberger, T. et, al., Methods in Molecular Biology, 2011, 741, pp 39-54). Briefly, before thawing the HBEC cells, T25 flasks were coated with 2 mL of 3T3 conditioned media (MTI-GlobalStem, Cat #GSM9100) for at least 12 hours in 37° C. CO2 incubator. 1.7×10^5 cells were seeded into one T25 flask with 5 mL of HBE growth media (BEBM with supplements (Lonza, Cat #CC-3170) with 10 nM of retinoic acid (Sigma, Cat #R-2625) and 1% of PSA (Hyclone, Cat #SV30079.01). Media was changed every day till the cells were 100% confluent. Cells were seeded into T75 flasks (pre-coated with 5 mL of 3T3 conditioned media for more than 12 hrs) at 4.95×10^5 cells/T75 flask in 15 mL of HBE growth media. Flasks were fed everyday with fresh HBE growth media until the cells were confluent. 24-well transwell plates (Corning, Cat #3378) were coated with 3T3 conditioned media (70 μL on top of the filter, 350 μL to the bottom of the well) overnight in the 37° C. CO2 incubator. Cells were seeded in the pre-coated 24-well transwell plates at 1.7×10^5 cell/well with 700 μL of growth media at the bottom of the well and 200 μL of growth media at the top of the filter. After 24 hrs, cells were switched into HBE differentiation media ((DMEM/F12 (Gibco, Cat #11330-032) supplement with 2% Ultroser G (Pall, Cat #15950-017), 2% of Fetal Clone II (Hyclone, Cat #SH30066.03), 0.25% Bovine Brain Extract (Lonza, Cat #CC-4098), 1% of PSA, 2.5 μg/mL of Insulin (Sigma, Cat #19278), 20 nM of Hydrocortisone (Sigma, Cat #H0888), 500 nM of Triiodothyronine (Sigma, Cat #T6397), 2.5 μg/mL of Transferrin (Sigma, Cat #T8158), 250 nM of Ethanolamine (Sigma, Cat #E0135), 1.5 μM of Epinephrine (Sigma, Cat #E4250), 250 nM of Phosphoethanolamine (Sigma, Cat #P0503), 10 nM of retinoic acid)) with 200 μL on top of the filter (apical side) and 700 μL at the bottom of the well (basolateral side). Cells were fed every other day with the differentiation media. After 4 days, cells were exposed to air/liquid interface. Then cells were fed every other day for 4 weeks before fully differentiated.
Cells were washed with 3 mM DTT in PBS at 70 ul/well for 30 min at 37° C. 6 days before the assay. 3 days before the assay, cells were washed again with PBS at 70 ul/well for 30 min at 37° C. Then cells were treated with compound for 24 hrs before the assay.
Following 24 hr treatment with compound, cells were transferred into plates containing 750 ul of assay media on basolateral side and 250 ul on apical side (Assay medium: F-12 Coon's modified, 20 mM HEPES pH7.4 with TRIS Base, No FCS or bicarbonate). The plates wee then transferred to the heated plate compartments (basolateral buffer temperature ˜36.5° C. on the heating block) of the TECC24 system for 45 mins prior to measurements.
Modulators were added sequentially as follows while the TECC24 instrument recorded the equivalent short circuit current (Ieq):
Prior to dilution into assay medium the stocks were as follows: • Benzamil stock: 10 mM in DMSO • Forskolin Stock: 50 mM in DMSO • N-(2,4-di-tert-butyl-5-hydroxyphenyl)-1,4-dihydro-4-oxoquinoline-3-carboxamide: 50 mM in DMSO • (S)-3-amino-6-methoxy-N-(3,3,3-trifluoro-2-hydroxy-2-methylpropyl)-5-(trifluoromethyl)picolinamide: 50 mM stock 100% DMSO • Bumetanide stock: 20 mM in EtOH
The data was normalized using the median signal from wells treated with 0.1% DMSO as a baseline. Curve fitting and EC50 calculations were performed using the following equation: […]

T1 sequence (P13569 with tags, fused parts or gaps DEL508-508): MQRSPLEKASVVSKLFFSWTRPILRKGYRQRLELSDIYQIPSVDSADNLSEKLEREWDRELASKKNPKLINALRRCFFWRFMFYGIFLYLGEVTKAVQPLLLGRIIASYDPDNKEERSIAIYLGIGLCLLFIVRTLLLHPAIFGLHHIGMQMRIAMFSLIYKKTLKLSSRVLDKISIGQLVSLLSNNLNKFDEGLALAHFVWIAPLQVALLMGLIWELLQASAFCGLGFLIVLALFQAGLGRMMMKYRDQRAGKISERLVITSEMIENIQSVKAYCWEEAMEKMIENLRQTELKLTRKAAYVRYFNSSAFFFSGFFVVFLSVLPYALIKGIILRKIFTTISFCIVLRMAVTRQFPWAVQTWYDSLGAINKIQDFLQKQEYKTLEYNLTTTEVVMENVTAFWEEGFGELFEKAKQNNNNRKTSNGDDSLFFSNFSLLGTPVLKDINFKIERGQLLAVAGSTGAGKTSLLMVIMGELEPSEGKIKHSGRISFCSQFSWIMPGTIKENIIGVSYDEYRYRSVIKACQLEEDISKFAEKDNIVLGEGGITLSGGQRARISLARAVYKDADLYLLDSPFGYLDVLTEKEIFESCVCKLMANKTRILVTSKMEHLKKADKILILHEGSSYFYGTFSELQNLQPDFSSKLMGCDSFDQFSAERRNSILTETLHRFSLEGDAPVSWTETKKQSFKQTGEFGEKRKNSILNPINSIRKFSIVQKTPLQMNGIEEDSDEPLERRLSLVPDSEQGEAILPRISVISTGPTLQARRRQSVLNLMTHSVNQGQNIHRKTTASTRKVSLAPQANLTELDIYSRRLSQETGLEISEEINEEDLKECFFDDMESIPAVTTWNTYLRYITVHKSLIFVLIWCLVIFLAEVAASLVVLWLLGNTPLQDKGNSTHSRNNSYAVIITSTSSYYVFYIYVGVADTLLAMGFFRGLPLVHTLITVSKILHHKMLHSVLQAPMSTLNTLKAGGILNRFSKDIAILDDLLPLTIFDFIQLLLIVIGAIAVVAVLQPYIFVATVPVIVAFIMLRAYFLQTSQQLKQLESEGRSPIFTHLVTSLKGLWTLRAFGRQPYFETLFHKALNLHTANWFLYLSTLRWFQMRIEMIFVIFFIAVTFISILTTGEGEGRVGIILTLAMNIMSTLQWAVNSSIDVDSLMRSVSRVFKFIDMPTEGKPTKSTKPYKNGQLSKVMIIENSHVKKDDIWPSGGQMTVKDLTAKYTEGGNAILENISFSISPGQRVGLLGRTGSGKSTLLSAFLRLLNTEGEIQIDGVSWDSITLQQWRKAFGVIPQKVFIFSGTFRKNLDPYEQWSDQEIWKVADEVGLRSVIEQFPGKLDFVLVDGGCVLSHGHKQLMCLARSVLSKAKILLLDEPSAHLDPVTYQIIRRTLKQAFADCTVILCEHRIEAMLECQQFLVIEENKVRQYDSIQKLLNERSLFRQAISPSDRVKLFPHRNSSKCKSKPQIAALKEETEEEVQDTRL

| SMILES | EC50 (delF508-CFTR [1]) [nM] | EC50 (delF508-CFTR [2]) [nM] | MTECC24-CFHBEC Amax % (delF508-CFTR [2]) [%] | Emax (delF508-CFTR [1]) [%] |
| --- | --- | --- | --- | --- |
| CC(C)c1ccccc1-c1nc(NS(=O)(=O)c2cccc(N(C)CCCC(=O)O)n2)ccc1C(F)(F)F [Compound 90, 4-((6-(N-(6-(2-isopropylphenyl)-5-(trifluoromethyl)pyridin-2-yl)sulfamoyl)pyridin-2-yl)(methyl)amino)butanoic Acid] | 1350 | 5 | 135 | – |
| Cc1ccc(F)cc1-c1nc(NS(=O)(=O)c2cccc(N(C)CCCC(=O)O)n2)ccc1C(F)(F)F [Compound 92, 4-((6-(N-(6-(5-fluoro-2-methylphenyl)-5-(trifluoromethyl)pyridin-2-yl)sulfamoyl)pyridin-2-yl)(methyl)amino)butanoic Acid] | 1820 | 394 | 123 | – |
| CCc1ccc(F)cc1-c1nc(NS(=O)(=O)c2cccc(N(C)CCCC(=O)O)n2)ccc1C(F)(F)F [Compound 93, 4-((6-(N-(6-(2-ethyl-5-fluorophenyl)-5-(trifluoromethyl)pyridin-2-yl)sulfamoyl)pyridin-2-yl)(methyl)amino)butanoic Acid] | 1430 | 40 | 235 | – |
| Cc1ccccc1-c1nc(NS(=O)(=O)c2cccc(N(CCCC(=O)O)C(C)C)n2)ccc1C(F)(F)F [Compound 94, 4-(isopropyl(6-(N-(6-(o-tolyl)-5-(trifluoromethyl)pyridin-2-yl)sulfamoyl)pyridin-2-yl)amino)butanoic acid] | 1370 | 26 | 208 | – |
| Cc1ccc(F)cc1-c1nc(NS(=O)(=O)c2cccc(N(CCCC(=O)O)C(C)C)n2)ccc1C(F)(F)F [Compound 95, 4-((6-(N-(6-(5-fluoro-2-methylphenyl)-5-(trifluoromethyl)pyridin-2-yl)sulfamoyl)pyridin-2-yl)(isopropyl)amino)butanoic Acid] | 1680 | 24 | 148 | – |
| CCc1ccccc1-c1nc(NS(=O)(=O)c2cccc(N(CCCC(=O)O)C(C)C)n2)ccc1C(F)(F)F [Compound 96, 4-((6-(N-(6-(2-ethylphenyl)-5-(trifluoromethyl)pyridin-2-yl)sulfamoyl)pyridin-2-yl)(isopropyl)amino)butanoic Acid] | 720 | 2 | 202 | – |
| CCc1ccccc1-c1nc(NS(=O)(=O)c2cccc(N(CC)CCCC(=O)O)n2)ccc1C(F)(F)F [Compound 97, 4-(ethyl(6-(N-(6-(2-ethylphenyl)-5-(trifluoromethyl)pyridin-2-yl)sulfamoyl)pyridin-2-yl)amino)butanoic Acid] | 1360 | 4 | 190 | – |
| CCCCN(CCCC(=O)O)c1cccc(S(=O)(=O)Nc2ccc(C(F)(F)F)c(-c3cc(F)ccc3C)n2)n1 [Compound 102, 4-(butyl(6-(N-(6-(5-fluoro-2-methylphenyl)-5-(trifluoromethyl)pyridin-2-yl)sulfamoyl)pyridin-2-yl)amino)butanoic Acid] | 1260 | 131 | 298 | – |
| Cc1ccccc1-c1nc(NS(=O)(=O)c2cccc(N(CCCC(=O)O)CC3CC3)n2)ccc1C(F)(F)F [Compound 103, 4-((cyclopropylmethyl)(6-(N-(6-(o-tolyl)-5-(trifluoromethyl)pyridin-2-yl)sulfamoyl)pyridin-2-yl)amino)butanoic Acid] | 1430 | 73 | 142 | – |
| CCc1ccc(F)cc1-c1nc(NS(=O)(=O)c2cccc(N(CC)CCCC(=O)O)n2)ccc1C(F)(F)F [Compound 110, 4-(ethyl(6-(N-(6-(2-ethyl-5-fluorophenyl)-5-(trifluoromethyl)pyridin-2-yl)sulfamoyl)pyridin-2-yl)amino)butanoic Acid] | 1030 | 6 | 182 | – |
| CCN(CCCC(=O)O)c1cccc(S(=O)(=O)Nc2ccc(C(F)(F)F)c(-c3ccccc3C)n2)n1 [Compound 114, 4-(ethyl(6-(N-(6-(o-tolyl)-5-(trifluoromethyl)pyridin-2-yl)sulfamoyl)pyridin-2-yl)amino)butanoic Acid] | 1680 | 101 | 211 | – |
| CCN(CCCC(=O)O)c1cccc(S(=O)(=O)Nc2ccc(C(F)(F)F)c(-c3cc(F)ccc3C)n2)n1 [Compound 115, 4-(ethyl(6-(N-(6-(5-fluoro-2-methylphenyl)-5-(trifluoromethyl)pyridin-2-yl)sulfamoyl)pyridin-2-yl)amino)butanoic Acid] | 1510 | 70 | 146 | – |
| Cc1ccccc1-c1nc(NS(=O)(=O)c2cccc(N(CCC(=O)O)C3CC3)n2)ccc1C(F)(F)F [Compound 118, 3-(cyclopropyl(6-(N-(6-(o-tolyl)-5-(trifluoromethyl)pyridin-2-yl)sulfamoyl)pyridin-2-yl)amino)propanoic Acid] | 1850 | 270 | 151 | 563 |
| Cc1ccccc1-c1nc(NS(=O)(=O)c2cccc(N(CCCC(=O)O)C3CC3)n2)ccc1C(F)(F)F [Compound 125, 4-(cyclopropyl(6-(N-(6-(o-tolyl)-5-(trifluoromethyl)pyridin-2-yl)sulfamoyl)pyridin-2-yl)amino)butanoic Acid] | 1360 | 422 | 114 | 643 |
| Cc1ccc(F)cc1-c1nc(NS(=O)(=O)c2cccc(N(CCC(=O)O)CC(C)C)n2)ccc1C(F)(F)F [Compound 126, 3-((6-(N-(6-(5-fluoro-2-methylphenyl)-5-(trifluoromethyl)pyridin-2-yl)sulfamoyl)pyridin-2-yl)(isobutyl)amino)propanoic Acid] | 970 | 14 | 207 | – |
| Cc1ccc(F)cc1-c1nc(NS(=O)(=O)c2cccc(N(CCCC(=O)O)CC(C)C)n2)ccc1C(F)(F)F [Compound 127, 4-((6-(N-(6-(5-fluoro-2-methylphenyl)-5-(trifluoromethyl)pyridin-2-yl)sulfamoyl)pyridin-2-yl)(isobutyl)amino)butanoic Acid] | 720 | 21 | 247 | – |

From patent US20220127247A1, “N-(PYRIDIN-2-YL)PYRIDINE-SULFONAMIDE DERIVATIVES AND THEIR USE IN THE TREATMENT OF DISEASE” (NOVARTIS AG, priority 2019, published 2022)
